Measurements taken from patent EP4755393A1, “USE OF PROTON PUMP REGULATOR IN PREPARATION OF DRUG” (Shanghai Quietd Biotechnology Co., Ltd., priority 2023, dated 2025).
Ends that are not written are not given here.

System: hippocampal CA1 pyramidal neurons
Assay: Whole-cell patch-clamp recording of spontaneous excitatory postsynaptic current (sEPSC) in hippocampal brain sections
Type: cell-based, C57 mouse
Conditions: 5 µM polypeptide applied for 5 min; clamp voltage -70 mV; FIGS. 8A-8C
Description: • Polypeptide QD202 was synthesized according to the amino acid sequence set forth in SEQ ID NO: 1. • Polypeptide QD202 N'-1 was synthesized according to the amino acid sequence set forth in SEQ ID NO: 2. • Polypeptide QD202 C'-1 was synthesized according to the amino acid sequence set forth in SEQ ID NO: 3. • Polypeptide QD202 C'-2 was synthesized according to the amino acid sequence set forth in SEQ ID NO: 4. • Polypeptide SS8 was synthesized according to the amino acid sequence set forth in SEQ ID NO: 54.
0.1-0.15 ml of 20% ethyl carbamate was injected into the abdominal cavity of a C57 mouse of 2 to 3 months old for anesthesia; a head was quickly cut, and brain tissues were stripped and put into artificial cerebrospinal fluid (ACSF) ice-water mixed liquid into which mixed gas (95%O2 and 5%CO2) was introduced in advance, and stood for 2 min; the ACSF included the following components: […] of NaCl, […] of KCl, 0.12 mM of NaH2PO4, […] of CaCl2, 0.12 mM of MgCl2, 25 mM of NaHCO3 and 11 mM of glucose. A hippocampus coronal brain section of […] was cut by a vibration slicer. […] The recorded data were analyzed by Minianalysis software.

Q: With “QD202: Polypeptide synthesized according to the amino acid sequence set forth in SEQ ID NO: 1; ATP6V1B2 regulator / DIR regulator (YGRKKRRQRRRSPVDVVCS; not fully specified)” as the substance, how does the “excitatory postsynaptic current amplitude” value read?
A: no influence

Q: And the “release frequency of excitatory postsynaptic current” value?
A: increasing
